# Earlier results, collected in patent US20090030075A1, “Remedy for and Method of Treating Ischemic Cerebral Stroke” (priority 2005, published 2009).
# System: cerebral infarction lesion
# Details: FR139317 used together with SUN9216
smiles,measurement,value
CC(C)C[C@H](NC(=O)N1CCCCCC1)C(=O)N[C@H](Cc1cn(C)c2ccccc12)C(=O)N[C@H](Cc1ccccn1)C(=O)O [FR139317],activity of inhibiting development of a cerebral infarction lesion,this effect disappears
